Molecules are shown by their SMILES.

The target in this assay is T1, h-GABAA α2β2γ1 (Homo sapiens, UniProt P47869+Q8N1C3).
T1 sequence (P47869 29-451): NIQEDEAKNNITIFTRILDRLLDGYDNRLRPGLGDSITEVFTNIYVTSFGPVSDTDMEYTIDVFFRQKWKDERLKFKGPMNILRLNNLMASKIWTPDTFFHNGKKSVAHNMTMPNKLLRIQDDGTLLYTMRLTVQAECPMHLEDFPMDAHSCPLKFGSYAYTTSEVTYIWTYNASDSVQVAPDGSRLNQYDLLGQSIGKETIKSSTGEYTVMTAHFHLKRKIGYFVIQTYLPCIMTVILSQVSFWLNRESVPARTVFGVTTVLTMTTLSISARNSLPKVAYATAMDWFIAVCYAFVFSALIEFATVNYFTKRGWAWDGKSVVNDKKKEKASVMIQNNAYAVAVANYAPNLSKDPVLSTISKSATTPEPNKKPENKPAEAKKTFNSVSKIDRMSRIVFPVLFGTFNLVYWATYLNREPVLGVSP
T1 sequence (P47870 25-512 partner limits assumed): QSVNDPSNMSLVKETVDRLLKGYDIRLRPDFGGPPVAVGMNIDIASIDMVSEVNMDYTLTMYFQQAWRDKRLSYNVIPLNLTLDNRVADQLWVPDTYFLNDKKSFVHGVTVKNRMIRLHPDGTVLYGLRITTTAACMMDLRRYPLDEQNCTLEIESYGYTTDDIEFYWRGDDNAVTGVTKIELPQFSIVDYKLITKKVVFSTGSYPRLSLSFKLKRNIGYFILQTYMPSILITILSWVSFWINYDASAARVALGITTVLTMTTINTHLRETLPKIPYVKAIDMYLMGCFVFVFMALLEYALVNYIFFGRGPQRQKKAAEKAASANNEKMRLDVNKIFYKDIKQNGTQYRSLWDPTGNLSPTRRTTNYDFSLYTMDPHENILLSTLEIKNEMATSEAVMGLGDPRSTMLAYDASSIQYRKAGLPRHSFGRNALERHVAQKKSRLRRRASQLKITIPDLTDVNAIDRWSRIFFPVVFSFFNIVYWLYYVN
T1 sequence (Q8N1C3 36-465): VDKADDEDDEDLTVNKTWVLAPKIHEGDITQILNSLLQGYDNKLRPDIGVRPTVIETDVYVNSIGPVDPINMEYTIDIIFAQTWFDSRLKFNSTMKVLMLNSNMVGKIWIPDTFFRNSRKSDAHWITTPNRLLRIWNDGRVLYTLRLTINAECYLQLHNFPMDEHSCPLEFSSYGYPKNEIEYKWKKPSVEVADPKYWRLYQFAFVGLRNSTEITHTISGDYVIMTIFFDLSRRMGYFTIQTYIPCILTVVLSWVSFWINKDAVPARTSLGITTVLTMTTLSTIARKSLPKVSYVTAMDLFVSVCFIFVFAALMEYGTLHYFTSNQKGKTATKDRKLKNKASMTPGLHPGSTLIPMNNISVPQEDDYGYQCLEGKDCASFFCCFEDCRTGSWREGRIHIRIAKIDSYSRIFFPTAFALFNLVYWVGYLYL
The assay can be described thus: Radioligand binding assay, [3H]RO7239181 competition, HEK293F membranes. Details: signal peptide of human GABAA α5 subunit (Met1 to Ser31), replacing the α2 signal peptide (N); expressed in transfected cells; host or cells: HEK293F cells (ThermoFisher R79007), membranes. How it is done:
The affinity of compounds at GABAA γ1 subunit-containing receptors was measured by competition for [^3H]RO7239181 (67.3 Ci/mmol; Roche) binding to membranes from HEK293F cells (ThermoFisher R79007) expressing human (transiently transfected) receptors of composition […], α2β2γ1, α1β2γ1.
Harvested pellets from HEK293F cells expressing the different GABAA receptor subtypes were resuspended in Mannitol Buffer pH 7.2-7.4 (Mannitol 0.29M, Triethylamine 10 mM, Acetic acid 10 mM, EDTA 1 mM plus protease inhibitors (20 tablets Complete, Roche Diagnostics Cat. No. 05 056 489 001 per liter)), washed two times and then resuspended at 1:10 to 1:15 dilution in the same buffer. Cell disruption was performed by stirring the suspension in a Parr vessel #4637 at 435 psi for 15 minutes, and then the suspensions were centrifuged at 1000×g for 15 minutes at 4° C. (Beckman Avanti J-HC; rotor JS-4.2). The supernatant (S1) was transferred in a 21 Schott flask and the pellet (P1) was resuspended with Mannitol Buffer up to 175 ml. The resuspended pellet was transferred into a 250 ml Corning centrifugal beaker and centrifuged at 1500×g for 10 minutes at 4° C. (Beckman Avanti J-HC; rotor JS-4.2). The supernatant (S1) was then transferred in the 21 Schott flask and the pellet was discarded. The supernatants (S1) were centrifuged in 500 ml Beckman polypropylene centrifugal beaker at 15′000×g for 30 minutes at 4° C. (Beckman Avanti J-20 XP; rotor JLA-10.500). The pellet (P2) was resuspended with Mannitol Buffer 1:1 and frozen at −80° C. The supernatant (S2) was centrifuged in 100 ml Beckman polypropylene centrifugal tubes at 48000×g for 50 minutes at 4° C. (Beckman Avanti J-20 XP; rotor JA-18). The supernatant (S3) was discarded and the pellet (P3) was resuspended with 1:1 Mannitol Buffer. The P2 and P3 protein concentration was determined with the BIORAD Standard assay method with bovine serum albumin as standard and measured on the NANO-Drop 1000. The membrane suspension was aliquots (500 μl per tube) and stored at −80° C. until required. Membrane homogenates were resuspended and polytronised (Polytron PT1200E Kinematica AG) in Potassium Phosphate 10 mM, KCl 100 mM binding buffer at pH 7.4 to a final assay concentration determined with a previous experiment.
Assays were incubated to equilibrium for 1 hour at 4° C. and then, membranes were filtered onto unifilter (96-well white microplate with bonded GF/C filters preincubated 20-50 minutes in 0.3% Polyethylenimine) with a Filtermate 196 harvester (Packard BioScience) and washed 4 times with cold Potassium Phosphate 10 mM pH 7.4, KCl 100 mM binding buffer. After drying, filter-retained radioactivity was detected by liquid scintillation counting. Ki values were calculated using Excel-Fit (Microsoft) and are the means of two determinations.
One may read the Ki as a dissociation constant, usually derived from enzyme kinetics or from competition with a known ligand. The molecule `Cc1nnc2n1-c1ccc(Cl)c(Cl)c1C(c1ncccc1F)=NC2` [Example 71, 7,8-dichloro-6-(3-fluoro-2-pyridyl)-1-methyl-4H-[1,2,4]triazolo[4,3-a][1,4]benzodiazepine] had an inhibition constant Ki of 37.6 nM.
Take `Fc1cccc(F)c1C1=NCc2nnc(-c3ccncn3)n2-c2ccc(Cl)c(Cl)c21` [Example 12, 7,8-dichloro-6-(2,6-difluorophenyl)-1-pyrimidin-4-yl-4H-[1,2,4]triazolo[4,3-a][1,4]benzodiazepine]: the Ki was 10.4 nM. Compared with the last molecule, the Ki is about 3.6-fold lower.
As to `Fc1cccnc1C1=NCc2nnc(-c3cccnn3)n2-c2ccc(Cl)c(Cl)c21` [Example 54, 7,8-dichloro-6-(3-fluoro-2-pyridyl)-1-pyridazin-3-yl-4H-[1,2,4]triazolo[4,3-a][1,4]benzodiazepine], affinity was put at a Ki of 30.2 nM. Compared with the last molecule, the Ki is about 2.9-fold higher.
The result for `Cc1nnc2n1-c1ccc(I)c(Cl)c1C(c1c(F)cccc1F)=NC2` [Example 41, 7-chloro-6-(2,6-difluorophenyl)-8-iodo-1-methyl-4H-[1,2,4]triazolo[4,3-a][1,4]benzodiazepine] reads 5.5 nM.
The result for `Fc1cccc(F)c1C1=NCc2nnc(-c3cccnn3)n2-c2ccc(Cl)c(Cl)c21` [Example 14, 7,8-dichloro-6-(2,6-difluorophenyl)-1-pyridazin-3-yl-4H-[1,2,4]triazolo[4,3-a][1,4]benzodiazepine] reads 3.4 nM; that for `Fc1ccccc1C1=NCc2nnc(-c3cccnn3)n2-c2ccc(C(F)(F)F)c(Cl)c21` [Example 27, 7-chloro-6-(2-fluorophenyl)-1-pyridazin-3-yl-8-(trifluoromethyl)-4H-[1,2,4]triazolo[4,3-a][1,4]benzodiazepine], 84.5 nM; that for `Cc1ccc2c(c1Cl)C(c1c(F)cccc1F)=NCc1nnc(C)n1-2` [Example 20, 7-chloro-6-(2,6-difluorophenyl)-1,8-dimethyl-4H-[1,2,4]triazolo[4,3-a][1,4]benzodiazepine], 23.8 nM.
The value for `Fc1cccc(F)c1C1=NCc2nnc(C3CCOCC3)n2-c2ccc(Cl)c(Cl)c21` [Example 11, 7,8-dichloro-6-(2,6-difluorophenyl)-1-tetrahydropyran-4-yl-4H-[1,2,4]triazolo[4,3-a][1,4]benzodiazepine] was 49.1 nM; that for `Cn1cc(-c2nnc3n2-c2ccc(Cl)c(Cl)c2C(c2c(F)cccc2F)=NC3)cn1` [Example 28, 7,8-dichloro-6-(2,6-difluorophenyl)-1-(1-methylpyrazol-4-yl)-4H-[1,2,4]triazolo[4,3-a][1,4]benzodiazepine] was 9.4 nM.
As to `Fc1cccnc1C1=NCc2nnc(-c3ccncn3)n2-c2ccc(Cl)c(Cl)c21` [Example 55, 7,8-dichloro-6-(3-fluoro-2-pyridyl)-1-pyrimidin-4-yl-4H-[1,2,4]triazolo[4,3-a][1,4]benzodiazepine], the Ki was determined as 18.5 nM.
The result for `Cc1ccc2c(c1Cl)C(c1c(F)cccc1F)=NCc1nnc(-c3ccncn3)n1-2` [Example 49, 7-chloro-6-(2,6-difluorophenyl)-8-methyl-1-pyrimidin-4-yl-4H-[1,2,4]triazolo[4,3-a][1,4]benzodiazepine] reads 14.1 nM; that for `Fc1cccc(F)c1C1=NCc2nncn2-c2ccc(C(F)(F)F)c(Cl)c21` [Example 37, 7-chloro-6-(2,6-difluorophenyl)-8-(trifluoromethyl)-4H-[1,2,4]triazolo[4,3-a][1,4]benzodiazepine], 41.4 nM; that for `Cc1nnc2n1-c1ccc(C(F)F)c(Cl)c1C(c1c(F)cccc1F)=NC2` [Example 25, 7-chloro-8-(difluoromethyl)-6-(2,6-difluorophenyl)-1-methyl-4H-[1,2,4]triazolo[4,3-a][1,4]benzodiazepine], 49.2 nM.
The result for `Cc1nnc2n1-c1ccc(C(C)(F)F)c(Cl)c1C(c1c(F)cccc1F)=NC2` [Example 22, 7-chloro-8-(1,1-difluoroethyl)-6-(2,6-difluorophenyl)-1-methyl-4H-[1,2,4]triazolo[4,3-a][1,4]benzodiazepine] reads 37.4 nM; that for `Cc1ncc2n1-c1ccc(Cl)cc1C(c1ccccc1F)=NC2` [Midazolam, reference compound], 738 nM; that for `Fc1cccnc1C1=NCc2nncn2-c2ccc(Cl)c(Cl)c21` [Example 60, 7,8-dichloro-6-(3-fluoro-2-pyridyl)-4H-[1,2,4]triazolo[4,3-a][1,4]benzodiazepine], 38.9 nM.
The value for `O=c1[nH]nc2n1-c1ccc(Br)c(Cl)c1C(c1c(F)cccc1F)=NC2` [Example 13, 8-bromo-7-chloro-6-(2,6-difluorophenyl)-2,4-dihydro-[1,2,4]triazolo[4,3-a][1,4]benzodiazepin-1-one] was 6.2 nM; that for `Fc1ccccc1C1=NCc2nncn2-c2ccc(Br)c(Cl)c21` [Example 8, 8-bromo-7-chloro-6-(2-fluorophenyl)-4H-[1,2,4]triazolo[4,3-a][1,4]benzodiazepine] was 47.6 nM; that for `COc1ccc2c(c1Cl)C(c1c(F)cccc1F)=NCc1nnc(C3CC3)n1-2` [Example 79, 7-chloro-1-cyclopropyl-6-(2,6-difluorophenyl)-8-methoxy-4H-[1,2,4]triazolo[4,3-a][1,4]benzodiazepine] was 51.2 nM.
`COc1nnc2n1-c1ccc(Cl)c(Cl)c1C(c1c(F)cccc1F)=NC2` [Example 90, 7,8-dichloro-6-(2,6-difluorophenyl)-1-methoxy-4H-[1,2,4]triazolo[4,3-a][1,4]benzodiazepine] yielded a Ki of 5.8 nM.
Molecule `Fc1cccc(F)c1C1=NCc2nncn2-c2ccc(C(F)F)c(Cl)c21` [Example 23, 7-chloro-8-(difluoromethyl)-6-(2,6-difluorophenyl)-4H-[1,2,4]triazolo[4,3-a][1,4]benzodiazepine] yielded a Ki of 54.5 nM.
For the molecule `COc1ccc2c(c1Cl)C(c1c(F)cccc1F)=NCc1nnc(-c3ccncn3)n1-2` [Example 61, 7-chloro-6-(2,6-difluorophenyl)-8-methoxy-1-pyrimidin-4-yl-4H-[1,2,4]triazolo[4,3-a][1,4]benzodiazepine], the Ki is 77.6 nM.

(Values after patent publication US20230141603A1, “BENZODIAZEPINE DERIVATIVES AS GABA A GAMMA1 PAM” (Hoffmann-La Roche Inc., priority 2021, published 2023).)
